Here are results for 19 compounds from patent US9745283B2, “Uracil derivatives as AXL and c-MET kinase inhibitors” (priority 2011, dated 2017).

The target in test [1] is recombinant human baculovirus-expressed cMET (Homo sapiens (Human), UniProt P08581). Briefly: C-MET Kinase Assay (HTRF KinEASE). The test is classed as biochemical. The note with it: average of two or more determinations; read-out: c-MET IC50. The gist of the method: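 HTRF KinEASE format with recombinant human baculovirus-expressed cMET at 8 ng/mL, biotinylated peptide at 0.1 μM and ATP at 0.02 μM. IC50 came from percent control activity versus log concentration, fitted by nonlinear regression to a variable-slope sigmoidal equation with bottom fixed at 0 and top at 100.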

The target of test [2] is recombinant human baculovirus-expressed AXL (Homo sapiens (Human), UniProt P30530). Briefly: AXL Kinase Assay (HTRF KinEASE). The test is classed as biochemical. The note with it: average of two or more determinations. The protocol:
The ability of compounds to inhibit the kinase activity of recombinant human baculovirus-expressed AXL was measured by homogeneous TRF (HTRF) using Cisbio's KinEASE™ assay system in white 384-well Optiplates. Assay buffer contained 1 mM DTT, 2 mM MnCl2, 2% DMSO, […] supplement enzymatic buffer, and 1× enzymatic buffer. A 2× concentration of tyrosine kinase (TK) substrate-biotin/ATP mixture made in assay buffer was added to plates at 10 μL/well using the Multidrop Combi (Thermo Fisher Scientific, Waltham, Mass.). […] Compounds (100 nL), diluted in 100% DMSO on the Biomek FX, (Beckman Coulter, Inc., Brea, Calif.), were transferred to the assay plates using the Biomek FX pintool (2.5% final DMSO in assay). […] Plates were sealed, briefly shaken and incubated at 25° C. for 30 minutes. […] Plates were sealed, briefly shaken and incubated at 25° C. for 1 hour.
Inhibition curves for compounds were generated by plotting percent control activity versus log 10 of the concentration of compound. IC50 values were calculated by nonlinear regression using the sigmoidal dose-response (variable slope) equation in GraphPad Prism as follows: y=bottom+(top−bottom)/(1+10(log IC50−x)*Hill Slope) where y is the % kinase activity at a given concentration of compound, x is the logarithm of the concentration of compound, bottom is the % of control kinase activity at the highest compound concentration tested, and top is the % of control kinase activity at the lowest compound concentration examined. The values for bottom and top were fixed at 0 and 100, respectively.
In general terms: Time-resolved FRET reads energy transfer from a long-lived donor to a nearby acceptor.

Usually IC50 stands for the concentration that gives 50% inhibition. On to `COc1cc2nccc(Oc3ccc(NC(=O)c4cn(CCCO)c(=O)n(-c5ccc(F)cc5)c4=O)cc3F)c2cc1OC` [Example 50, 3-(4-Fluorophenyl)-1-(3-hydroxypropyl)-2,4-dioxo-1,2,3,4-tetrahydropyrimidine-5-carboxylic acid [4-(6,7-dimethoxyquinolin-4-yloxy)-3-fluorophenyl]-amide], for which the IC50 in test [1] and in test [2] was less than 10 nM each time.
As to `COc1cc2nccc(Oc3ccc(NC(=O)c4cn(CCCO)c(=O)n(-c5ccc(F)cc5)c4=O)c(F)c3)c2cc1OC` [Example 51, 3-(4-Fluorophenyl)-1-(3-hydroxypropyl)-2,4-dioxo-1,2,3,4-tetrahydropyrimidine-5-carboxylic acid [4-(6,7-dimethoxy-quinolin-4-yloxy)-2-fluoro-phenyl]-amide], the IC50 in test [1] and in test [2] was less than 10 nM in each case.
Regarding `COc1cc2nccc(Oc3ccc(NC(=O)c4cn(CCCO)c(=O)n(-c5ccc(F)cc5)c4=O)cc3)c2cc1OC` [Example 52, 3-(4-Fluorophenyl)-1-(3-hydroxypropyl)-2,4-dioxo-1,2,3,4-tetrahydropyrimidine-5-carboxylic acid [4-(6,7-dimethoxyquinolin-4-yloxy)phenyl]-amide], the IC50 was 10 to 100 nM in test [1] and less than 10 nM in test [2].
With `COc1cc2nccc(Oc3ccc(NC(=O)c4cn(CCO)c(=O)n(-c5ccc(F)cc5)c4=O)cc3)c2cc1OC` [Example 53, 3-(4-Fluorophenyl)-1-(2-hydroxyethyl)-2,4-dioxo-1,2,3,4-tetrahydropyrimidine-5-carboxylic acid [4-(6,7-dimethoxyquinolin-4-yloxy)phenyl]-amide], the IC50 in test [1] and in test [2] was less than 10 nM throughout.
Regarding `COc1cc2nccc(Oc3ccc(NC(=O)c4cn(C[C@H](O)CO)c(=O)n(-c5ccc(F)cc5)c4=O)cc3F)c2cc1OC` [Example 54, 1-((S)-2,3-Dihydroxypropyl)-3-(4-fluorophenyl)-2,4-dioxo-1,2,3,4-tetrahydropyrimidine-5-carboxylic acid [4-(6,7-dimethoxyquinolin-4-yloxy)-3-fluorophenyl]-amide], the IC50 was 10 to 100 nM in test [1] and less than 10 nM in test [2].
`COc1cc2nccc(C(O)c3ccc(NC(=O)c4cn(C)c(=O)n(-c5ccc(F)cc5)c4=O)cc3F)c2cc1OC` (centres unmarked) [Example 57, 3-(4-fluoro-phenyl)-1-methyl-2,4-dioxo-1,2,3,4-tetrahydro-pyrimidine-5-carboxylic acid {4-[(6,7-dimethoxy-quinolin-4-yl)-hydroxy-methyl]-3-fluoro-phenyl}-amide]: the IC50 in test [1] was 101 to 1000 nM; in test [2], less than 10 nM.
For `COc1cc2nccc(Cc3ccc(NC(=O)c4cn(C)c(=O)n(-c5ccc(F)cc5)c4=O)cc3F)c2cc1OC` [Example 58, 3-(4-fluoro-phenyl)-1-methyl-2,4-dioxo-1,2,3,4-tetrahydro-pyrimidine-5-carboxylic acid [4-(6,7-dimethoxy-quinolin-4-ylmethyl)-3-fluoro-phenyl]-amide], the IC50 was 10 to 100 nM in test [1] and less than 10 nM in test [2].
In the case of `C#CCn1cc(C(=O)Nc2ccc(Oc3ccnc4cc(OC)c(OC)cc34)c(F)c2)c(=O)n(-c2ccc(F)cc2)c1=O` [Example 61, 3-(4-Fluoro-phenyl)-2,4-dioxo-1-prop-2-ynyl-1,2,3,4-tetrahydro-pyrimidine-5-carboxylic acid [4-(6,7-dimethoxy-quinolin-4-yloxy)-3-fluoro-phenyl]-amide], the IC50 in test [1] and in test [2] was less than 10 nM each time.
Regarding `COc1cc2nccc(Oc3ccc(NC(=O)c4cn(CCn5ccnc5)c(=O)n(-c5ccc(F)cc5)c4=O)cc3F)c2cc1OC` [Example 62, 3-(4-Fluoro-phenyl)-1-(2-imidazol-1-yl-ethyl)-2,4-dioxo-1,2,3,4-tetrahydro-pyrimidine-5-carboxylic acid [4-(6,7-dimethoxy-quinolin-4-yloxy)-3-fluoro-phenyl]-amide], the IC50 in test [1] and in test [2] was less than 10 nM throughout.
For `COc1cc2nccc(Oc3ccc(NC(=O)c4cn(CCn5cccn5)c(=O)n(-c5ccc(F)cc5)c4=O)cc3F)c2cc1OC` [Example 63, 3-(4-Fluoro-phenyl)-2,4-dioxo-1-(2-pyrazol-1-yl-ethyl)-1,2,3,4-tetrahydro-pyrimidine-5-carboxylic acid [4-(6,7-dimethoxy-quinolin-4-yloxy)-3-fluoro-phenyl]-amide], the IC50 in test [1] and in test [2] was less than 10 nM in each case.
As for `COc1cc2nccc(Oc3ccc(NC(=O)c4cn(CCc5ccccc5)c(=O)n(-c5ccc(F)cc5)c4=O)cc3F)c2cc1OC` [Example 64, 3-(4-Fluoro-phenyl)-2,4-dioxo-1-phenethyl-1,2,3,4-tetrahydro-pyrimidine-5-carboxylic acid [4-(6,7-dimethoxy-quinolin-4-yloxy)-3-fluoro-phenyl]-amide], the IC50 in test [1] was 10 to 100 nM; in test [2], less than 10 nM.
`COc1cc2nccc(Oc3ccc(NC(=O)c4cn(CCC5OCCO5)c(=O)n(-c5ccc(F)cc5)c4=O)cc3F)c2cc1OC` [Example 65, 1-[2-(1,3-Dioxolan-2-yl-ethyl)]-3-(4-fluoro-phenyl)-2,4-dioxo-1,2,3,4-tetrahydro-pyrimidine-5-carboxylic acid [4-(6,7-dimethoxy-quinolin-4-yloxy)-3-fluoro-phenyl]-amide]: the IC50 in test [1] was 10 to 100 nM; in test [2] it was less than 10 nM.
As for `CCN(CC)C(=O)Cn1cc(C(=O)Nc2ccc(Oc3ccnc4cc(OC)c(OC)cc34)c(F)c2)c(=O)n(-c2ccc(F)cc2)c1=O` [Example 66, 1-Diethylcarbamoylmethyl-3-(4-fluoro-phenyl)-2,4-dioxo-1,2,3,4-tetrahydro-pyrimidine-5-carboxylic acid [4-(6,7-dimethoxy-quinolin-4-yloxy)-3-fluoro-phenyl]-amide], the IC50 in test [1] and in test [2] was less than 10 nM each time.
For the compound `COc1cc2nccc(Oc3ccc(NC(=O)c4cn(CC(=O)N5CCOCC5)c(=O)n(-c5ccc(F)cc5)c4=O)cc3F)c2cc1OC` [Example 67, 3-(4-Fluoro-phenyl)-1-(2-morpholin-4-yl-2-oxo-ethyl)-2,4-dioxo-1,2,3,4-tetrahydro-pyrimidine-5-carboxylic acid [4-(6,7-dimethoxy-quinolin-4-yloxy)-3-fluoro-phenyl]-amide], the IC50 is 10 to 100 nM in test [1] and less than 10 nM in test [2].
Take `COc1cc2nccc(Oc3ccc(NC(=O)c4cn(CCN5CCCC5=O)c(=O)n(-c5ccc(F)cc5)c4=O)cc3F)c2cc1OC` [Example 68, 3-(4-Fluoro-phenyl)-2,4-dioxo-1-[2-(2-oxo-pyrrolidin-1-yl)-ethyl]-1,2,3,4-tetrahydro-pyrimidine-5-carboxylic acid [4-(6,7-dimethoxy-quinolin-4-yloxy)-3-fluoro-phenyl]-amide]: the IC50 in test [1] and in test [2] was less than 10 nM throughout.
In the case of `COc1cc2nccc(Oc3ccc(NC(=O)c4cn(CCF)c(=O)n(-c5ccc(F)cc5)c4=O)cc3F)c2cc1OC` [Example 69, 1-(2-Fluoro-ethyl)-3-(4-fluoro-phenyl)-2,4-dioxo-1,2,3,4-tetrahydro-pyrimidine-5-carboxylic acid [4-(6,7-dimethoxy-quinolin-4-yloxy)-3-fluoro-phenyl]-amide], the IC50 in test [1] and in test [2] was less than 10 nM throughout.
As for `COc1cc2nccc(Oc3ccc(NC(=O)c4cn(CC(=O)O)c(=O)n(-c5ccc(F)cc5)c4=O)cc3F)c2cc1OC` [Example 71, [5-[4-(6,7-Dimethoxyquinolin-4-yloxy)-3-fluorophenylcarbamoyl]-3-(4-fluorophenyl)-2,4-dioxo-3,4-dihydro-2H-pyrimidin-1-yl]-acetic acid], the IC50 in test [1] and in test [2] was less than 10 nM each time.
As for `COc1cc2nccc(Oc3ccc(NC(=O)c4cn(Cc5ncco5)c(=O)n(-c5ccc(F)cc5)c4=O)cc3F)c2cc1OC` [Example 72, 3-(4-Fluoro-phenyl)-1-oxazol-2-ylmethyl-2,4-dioxo-1,2,3,4-tetrahydro-pyrimidine-5-carboxylic acid [4-(6,7-dimethoxy-quinolin-4-yloxy)-3-fluoro-phenyl]-amide], the figures for the IC50 in test [1] and in test [2] were 10 to 100 nM and less than 10 nM, respectively.
For `COc1cc2nccc(Oc3ccc(NC(=O)c4cn(CC5CCCO5)c(=O)n(-c5ccc(F)cc5)c4=O)cc3F)c2cc1OC` (centres unmarked) [Example 73, 3-(4-Fluoro-phenyl)-2,4-dioxo-1-(tetrahydro-furan-2-ylmethyl)-1,2,3,4-tetrahydro-pyrimidine-5-carboxylic acid [4-(6,7-dimethoxy-quinolin-4-yloxy)-3-fluoro-phenyl]-amide], the values for the IC50 in test [1] and in test [2] were 10 to 100 nM and less than 10 nM, respectively.
